Here are results for four molecules from PMC12392461, “Beyond Estrogenicity: A Comparative Assessment of Bisphenol A and Its Alternatives in In Vitro Assays Questions Safety of Replacements” (Environmental Science & Technology, 2025).

Data set [1] in a line: Abiotic CYP (aCYP) oxidation, remaining parent compound (Cparent-Ratio).
Data set [2] deals with T1, Estrogen Receptor ERα (Homo sapiens, UniProt P03372).
T1 sequence (P03372 311-547 limits assumed): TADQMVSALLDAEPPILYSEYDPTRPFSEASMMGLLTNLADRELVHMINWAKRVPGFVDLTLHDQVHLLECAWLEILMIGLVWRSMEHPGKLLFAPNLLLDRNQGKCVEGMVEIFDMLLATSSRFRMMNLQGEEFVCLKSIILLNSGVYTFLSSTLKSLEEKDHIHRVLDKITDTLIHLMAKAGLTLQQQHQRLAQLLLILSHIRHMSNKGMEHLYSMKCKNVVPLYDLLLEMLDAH
As to the kind of experiment: cell-based. The conditions noted are these: This Study. The text has this:
All bioassay media components and the ERα-UAS-bla GripTite and PPARγ-UAS-bla cells were obtained from Thermo Fisher Scientific (Waltham, MA, USA). AREc32 reporter gene cells based on MCF7 were provided by C. Roland Wolf (Cancer Research UK); AhR CALUX cells (H4L7.5c2 derived from H4IIe) were provided by Michael Denison (UC Davis, USA); and SH-SY5Y cells were purchased from Sigma-Aldrich.
Cell culture conditions and bioassay protocols including response detection are provided in Text S2.1–2.4 and Table S3. − Cell viability was determined from cell confluency using an IncuCyte S3 Live-Cell Analysis System (Sartorius AG, Essen, Germany) before and after exposure, except for SH-SY5Y cells (live–dead staining with Nuclear Green LcS1 and propidium iodide, Abcam, UK). For metabolic activation experiments, cell viability was assessed using the ToxBLAzer DualScreen Kit (Thermo Fisher Scientific) to capture the remaining toxicity in ERα-UAS-bla GripTite after treatment with the aCYP catalyst (details in Text S2.4).
For ARE, the concentration that triggered an induction ratio of 1.5 (ECIR1.5) was used as the benchmark value, as detailed in Text S2.5. IC10 values also served as a threshold for data analysis in all assays; only concentrations below IC10 were considered when deriving EC10 or ECIR1.5.
The maximum efficacy (Emax%) refers to the maximum of the log–logistic concentration–response curve attained by test chemicals compared to the reference chemical’s maximum and was obtained for both ERα and PPARγ. […]
S2: Cell culture and bioassays
S2.1: Cell Culturing Conditions
All suppliers and sources are given in detail in SI-Excel S3. The bioassay media for the different assays were prepared as follows: Assay medium for ER alpha-UAS-bla GripTite (ERα) and […]
2% charcoal-stripped FBS, and 100 U/mL penicillin-streptomycin. […]
S2.2: Cell Seeding and Incubation. For all bioassays, cell suspensions in the respective assay medium were dispensed into each well of 384-well plates using a MultiFlo Dispenser (Biotek, (now Agilent), Winooski, VT, U.S.). After seeding, the plates were incubated at 37° C and 5% CO₂ for […]. The final cell densities and plate types were as follows: Black poly-D-lysine […]
6500 cells/well, ERα: 5000 cells/well. White 384-well plates with a clear bottom (Product No. […]
S2.3: Chemical Dosing and Assay Analysis Procedures.

For data set [3], the system named is ERα. The conditions noted are these: ref Pelch et al 2019; cited from earlier work.
Data set [4] has as its system Tox21 assays. As to conditions: re-evaluated Tox21 data, ref Adamovsky et al 2024, cited from earlier work.
Data set [5] relates to Tox21 assays. As to the kind of experiment: Re-evaluated Tox21 data (Adamovsky et al.), REPBPA and SRbaseline.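 On all read-outs here: published Tox21 results reanalysed with a revised model predicting baseline toxicity.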 As to conditions: for REPBPA: Relative Effect Potency; for SRbaseline: Specificity Ratio.
Excerpt: We also reanalyzed the Tox21 data of Adamovsky et al. with the updated baseline toxicity prediction model (Table S2).
Data set [6] concerns keratinocytes. Also noted: method as in Son et al. The conditions noted are these: ref Son et al.; cited from earlier work.
On the set-up of data set [7]: method as in ref 12 (ECHA). As to conditions: ref 12 (ECHA), cited from earlier work.
On the set-up of data set [8]: method as in ref EFSA. As to conditions: in vitro and in vivo data; ref EFSA; cited from earlier work.
The mark [9] stands for this setting: TOX21_AR_LUC_MDAKB2_Antagonist_0,5nM_R1881.
The mark [10] stands for this setting: TOX21_PPARg_BLA_antagonist_ratio.

Structures are written as SMILES. Like-named read-outs stand apart in the source and are kept apart here.

On to `O=S(=O)(c1ccc(O)cc1)c1ccccc1O` [2, 4BPS], for which, in data set [1] (Table S9, loss of parent after aCYP oxidation), the “% Loss” value was -4.66%. The “Cparent-Ratio Mean” value in data set [1] (Table S9, mean of two replicate experiments) worked out at 1.05. Moreover, the “Cparent-Ratio Rep.1 %” value in data set [1] (Table S9, replicate 1) amounted to 108.33%. Further, the “Cparent-Ratio Rep.1” value in data set [1] (Table S9, replicate 1, as fraction) is 1.08. The “Cparent-Ratio Rep.2 %” value in data set [1] (Table S9, replicate 2) is 100.98%. Also, in data set [1] (Table S9, replicate 2, as fraction), the “Cparent-Ratio Rep.2” value stood at 1.01.
Regarding `O=S(=O)(c1ccc(O)cc1)c1ccccc1O` [24BPS], the Efficacy % in data set [2] is 19.00%; in data set [3], 24.30%. This molecule also gave an EC10 in data set [2] (ERα, in M) of 1.98E-05. Besides, the REPBPA in data set [2] (relative estrogenic potency vs BPA) was found to be 1.87E-02.
With `Cc1cc(C(C)(C)c2ccc(O)c(C)c2)ccc1O` [BPC], the EC10 in data set [4] (ATG_PPARg_TRANS_up) is 1880 nM; in data set [4] (setting [9]) it was 850 nM; in data set [4] (setting [10]), 3090 nM. Moreover, the REPBPA in data set [5] (ATG_PPARg_TRANS_up) was 0.85; in data set [5] (setting [9]) it was 2.85. Further, the SRbaseline in data set [5] (ATG_PPARg_TRANS_up) is on record as 17.78; in data set [5] (setting [9]) it was 39.40; in data set [5] (setting [10]) it was 10.83.
For the molecule `CC1(C)C(O)C(C)(C)C1O` (centres unmarked) [TMCD, 2,2,4,4-tetramethyl-1,3-cyclobutanediol], the “concentration with statistically significant reduced cell viability” value in data set [6] is 350 µM. The “degradation in OECD guideline test 301B” value in data set [7] (aqueous solution) is “no degradation”. In addition, in data set [7], the “time reported to remain stable” value is 22 days. Besides, in data set [8], the genotoxicity categorisation entry is given as “nongenotoxic”. The “parent compound during aCYP oxidation” value in data set [1] is “remained unchanged”.
